According to paper PMC10620772, “Design, synthesis, and biological evaluation of new pyrimidine-5-carbonitrile derivatives as novel anti-cancer, dual EGFR^WT/COX-2 inhibitors with docking studies” (RSC Advances, 2023):

Experiments:
CCRF-CEM = assay: NCI60 antitumor screening; format: cell-based, human; details: Homo sapiens; 10 μM single dose; CCRF-CEM (leukaemia); read-out: growth inhibition percent (GI%)
HL-60(TB) = assay: NCI60 antitumor screening; format: cell-based, human; details: Homo sapiens; 10 μM single dose; HL-60(TB) (leukaemia); read-out: growth inhibition percent (GI%)
K-562 = assay: NCI60 antitumor screening; format: cell-based, human; details: Homo sapiens; 10 μM single dose; (leukaemia); read-out: growth inhibition percent (GI%)
MOLT-4 = assay: NCI60 antitumor screening; format: cell-based, human; details: Homo sapiens; 10 μM single dose; MOLT-4 (leukaemia); read-out: growth inhibition percent (GI%)
A549/ATCC = assay: NCI60 antitumor screening; format: cell-based, human; details: Homo sapiens; 10 μM single dose; A549/ATCC (non-small cell lung cancer); read-out: growth inhibition percent (GI%)
NCI-H460 = assay: NCI60 antitumor screening; format: cell-based, human; details: Homo sapiens; 10 μM single dose; NCI-H460 (non-small cell lung cancer); read-out: growth inhibition percent (GI%)
HCT-116 = assay: NCI60 antitumor screening; format: cell-based, human; details: Homo sapiens; 10 μM single dose; HCT-116 (colon cancer); read-out: growth inhibition percent (GI%)
HT29 = assay: NCI60 antitumor screening; format: cell-based, human; details: Homo sapiens, HT-29; 10 μM single dose; HT29 (colon cancer); read-out: growth inhibition percent (GI%)
SF-268 = assay: NCI60 antitumor screening; format: cell-based, human; details: Homo sapiens; 10 μM single dose; SF-268 (CNS cancer); read-out: growth inhibition percent (GI%)
SF-295 = assay: NCI60 antitumor screening; format: cell-based, human; details: Homo sapiens; 10 μM single dose; SF-295 (CNS cancer); read-out: growth inhibition percent (GI%)
SF-539 = assay: NCI60 antitumor screening; format: cell-based, human; details: Homo sapiens; 10 μM single dose; SF-539 (CNS cancer); read-out: growth inhibition percent (GI%)
U251 = assay: NCI60 antitumor screening; format: cell-based, human; details: Homo sapiens, U-251; 10 μM single dose; U251 (CNS cancer); read-out: growth inhibition percent (GI%)
LOX IMVI = assay: NCI60 antitumor screening; format: cell-based, human; details: Homo sapiens; 10 μM single dose; LOX IMVI (melanoma); read-out: growth inhibition percent (GI%)
M14 = assay: NCI60 antitumor screening; format: cell-based, human; details: Homo sapiens; 10 μM single dose; M14 (melanoma); read-out: growth inhibition percent (GI%)
MDA-MB-435 = assay: NCI60 antitumor screening; format: cell-based, human; details: Homo sapiens; 10 μM single dose; MDA-MB-435 (melanoma); read-out: growth inhibition percent (GI%)
SK-MEL-28 = assay: NCI60 antitumor screening; format: cell-based, human; details: Homo sapiens; 10 μM single dose; SK-MEL-28 (melanoma); read-out: growth inhibition percent (GI%)
SK-MEL-5 = assay: NCI60 antitumor screening; format: cell-based, human; details: Homo sapiens; 10 μM single dose; SK-MEL-5 (melanoma); read-out: growth inhibition percent (GI%)
OVCAR-3 = assay: NCI60 antitumor screening; format: cell-based, human; details: Homo sapiens; 10 μM single dose; OVCAR-3 (ovarian cancer); read-out: growth inhibition percent (GI%)
OVCAR-4 = assay: NCI60 antitumor screening; format: cell-based, human; details: Homo sapiens; 10 μM single dose; OVCAR-4 (ovarian cancer); read-out: growth inhibition percent (GI%)
NCI/ADR-RES = assay: NCI60 antitumor screening; format: cell-based, human; details: Homo sapiens; 10 μM single dose; NCI/ADR-RES (ovarian cancer); read-out: growth inhibition percent (GI%)
786–0 = assay: NCI60 antitumor screening; format: cell-based, human; details: Homo sapiens; 10 μM single dose; 786–0 (renal cancer); read-out: growth inhibition percent (GI%)
A498 = assay: NCI60 antitumor screening; format: cell-based, human; details: Homo sapiens; 10 μM single dose; A498 (renal cancer); read-out: growth inhibition percent (GI%)
PC-3 = assay: NCI60 antitumor screening; format: cell-based, human; details: Homo sapiens; 10 μM single dose; PC-3 (prostate cancer); read-out: growth inhibition percent (GI%)
BT-549 = assay: NCI60 antitumor screening; format: cell-based, human; details: Homo sapiens; 10 μM single dose; BT-549 (breast cancer); read-out: growth inhibition percent (GI%)
MDA-MB-468 = assay: NCI60 antitumor screening; format: cell-based, human; details: Homo sapiens; 10 μM single dose; MDA-MB-468 (breast cancer); read-out: growth inhibition percent (GI%)

Compound	inhibition at 10 µM (CCRF-CEM)	inhibition at 10 µM (HL-60(TB))	inhibition at 10 µM (K-562)	inhibition at 10 µM (MOLT-4)	inhibition at 10 µM (A549/ATCC)	inhibition at 10 µM (NCI-H460)	inhibition at 10 µM (HCT-116)	inhibition at 10 µM (HT29)	inhibition at 10 µM (SF-268)	inhibition at 10 µM (SF-295)	inhibition at 10 µM (SF-539)	inhibition at 10 µM (U251)	inhibition at 10 µM (LOX IMVI)	inhibition at 10 µM (M14)	inhibition at 10 µM (MDA-MB-435)	inhibition at 10 µM (SK-MEL-28)	inhibition at 10 µM (SK-MEL-5)	inhibition at 10 µM (OVCAR-3)	inhibition at 10 µM (OVCAR-4)	inhibition at 10 µM (NCI/ADR-RES)	other results
N#Cc1c(-c2ccc(F)cc2)nc(SCc2ccc(F)cc2)nc1N1CCN(c2ccccc2)CC1 [4n, 2-((4-Fluorobenzyl)thio)-4-(4-fluorophenyl)-6-(4-phenylpiperazin-1-yl)pyrimidine-5-carbonitrile]	16.6%	< 10%	12.5%	12.4%	< 10%	< 10%	11.8%	< 10%	14.1%	< 10%	< 10%	< 10%	< 10%	10.1%	< 10%	< 10%	12.4%	< 10%	10.4%	< 10%	inhibition at 10 µM (786–0): < 10%; inhibition at 10 µM (A498): < 10%; inhibition at 10 µM (PC-3): 25.2%; inhibition at 10 µM (BT-549): < 10%; inhibition at 10 µM (MDA-MB-468): < 10%; melting point: 180 to 182 °C
N#Cc1c(-c2ccc(F)cc2)nc(SCc2ccc([N+](=O)[O-])cc2)nc1N1CCN(c2ccccc2)CC1 [4o, 4-(4-Fluorophenyl)-2-((4-nitrobenzyl)thio)-6-(4-phenylpiperazin-1-yl)pyrimidine-5-carbonitrile]	< 10%	< 10%	< 10%	< 10%	< 10%	< 10%	< 10%	< 10%	< 10%	< 10%	< 10%	< 10%	< 10%	< 10%	< 10%	< 10%	< 10%	< 10%	12.3%	< 10%	inhibition at 10 µM (786–0): < 10%; inhibition at 10 µM (A498): < 10%; inhibition at 10 µM (PC-3): < 10%; inhibition at 10 µM (BT-549): < 10%; inhibition at 10 µM (MDA-MB-468): 10.9%; melting point: 165 to 167 °C
